How the values were obtained:
human MAO-B [1] = molecular target: T1, human MAO-B (Homo sapiens, UniProt P27338); experiment: MAO-B radioligand binding assay ([3H]-DMAB or [3H] 5-Fluoro-2-(1-methyl-1H-indazol-5-yl)-oxazolo[5,4-b]pyridine); conditions: membrane fractions from insect cells expressing human MAO-B; radioligand 8-10 nM
T1 construct: purchased BD Biosciences Discovery Labware, Woburn Mass; (BD Supersomes Enzymes); host or cells: insect cells
T1 sequence (P27338 1-520): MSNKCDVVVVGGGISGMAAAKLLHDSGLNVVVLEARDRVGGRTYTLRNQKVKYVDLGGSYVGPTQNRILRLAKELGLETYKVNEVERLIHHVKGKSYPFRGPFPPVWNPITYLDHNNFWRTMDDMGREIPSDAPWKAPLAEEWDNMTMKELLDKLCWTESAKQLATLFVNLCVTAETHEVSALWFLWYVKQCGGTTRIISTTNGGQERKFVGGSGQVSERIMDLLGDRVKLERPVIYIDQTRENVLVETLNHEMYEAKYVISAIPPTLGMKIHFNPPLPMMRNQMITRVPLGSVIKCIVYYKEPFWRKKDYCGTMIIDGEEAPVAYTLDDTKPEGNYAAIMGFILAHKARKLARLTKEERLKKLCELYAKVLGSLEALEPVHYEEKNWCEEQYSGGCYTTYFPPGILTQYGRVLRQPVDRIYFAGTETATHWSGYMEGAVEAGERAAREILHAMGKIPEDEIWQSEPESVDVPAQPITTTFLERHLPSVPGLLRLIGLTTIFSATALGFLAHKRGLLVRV
Description: Radioligand binding assay: MAO-B containing membrane fractions prepared from insect cells expressing human MAO-B (BD Supersomes Enzymes, BD Biosciences Discovery Labware, Woburn Mass.) were used as a source of MAO-B. [^3H]-DMAB or [^3H] 5-Fluoro-2-(1-methyl-1H-indazol-5-yl)-oxazolo[5,4-b]pyridine were synthesized at a specific activity of ˜80 Ci/mmol. The final concentration of radioligand for tissue homogenate binding assay was 8-10 nM. MAO-B membrane fractions were diluted with phosphate buffered saline (PBS) to 0.25 mg/mL from original 5 mg/mL volume and 200 μl was used in assay for a final mass of 50 μg/assay tube. Unlabeled test compounds were dissolved in dimethylsulfoxide (DMSO) at 1 mM. Dilution of test compound to various concentrations was made with PBS containing 2% DMSO. Total binding was defined in the absence of competing compound, and non-displaceable binding was determined in the presence of 1 μM unlabeled self block. Compound dilutions (10×) were added into the assay tube (25 μL each per tube, separately) containing 200 μL diluted MAO-B membrane fraction, and the tubes were pre-incubated at room temperature for 10 minutes. […] Filters were punched into scintillation vials and counted in 2 mL Ultima Gold on Perkin Elmer Tri-Carb 2900TR for 1 minute. […]

human MAO-B [2] = molecular target: T1, human MAO-B; experiment: Monoamine oxidase B functional assay (kynuramine deamination, fluorescence); type: biochemical; conditions: membrane fractions from insect cells expressing human MAO-B; kynuramine substrate
Description: Functional assay: MAO-B containing membrane fractions prepared from insect cells expressing human MAO-B (BD Supersomes Enzymes, BD Biosciences Discovery Labware, Woburn Mass.) were used as a source of MAO-B. Assays were conducted in 96-well plates in a final volume of 200 μL. The assay buffer was 0.1 M potassium phosphate (pH 7.4). The assay system consisted of three mixes: a) inhibitor dilution mix, which was the assay buffer, b) substrate/buffer/control insect cell protein mix: 4× substrate-80 μM kynuramine and 4× control insect cell protein, and c) enzyme/buffer mix: 4× concentrate of MAO-B prepared in assay buffer. The final MAO-B concentration was 0.015 mg/mL. The final total, normalized protein concentration, using control insect protein, was 0.06 mg/mL. Test compounds were serial diluted 3-fold in the inhibitor dilution mix directly in the 96-well plate (total final volume of 100 μL). Fifty μL of the substrate/buffer mix was added to each well. The 96-well plate, containing test compound and MAO substrate (150 μL total volume), was preincubated to 37° C. The reaction was initiated with 50 μL of enzyme/buffer mix. […] Product formation was quantified by comparing the fluorescence emission of the samples to that of known amounts of authentic metabolite standard, 4-hydroxyquinoline, the product formed from kynuramine deamination. […]

| Compound | IC50 (human MAO-B [1]) [nM] | Ki (human MAO-B [2]) [nM] |
| --- | --- | --- |
| Cn1ccc2cc(-c3nc4ccc(F)nc4s3)cnc21 | 3.7 |  |
| CN(C)c1ccc(-c2nc3ccc(F)nc3o2)cc1 | 31 |  |
| Cn1ccc2cc(-c3nc4ccc(F)nc4o3)cnc21 |  | 18 |

From patent US20110212031A1, “NOVEL SUBSTITUTED AZABENZOXAZOLES” (priority 2008, published 2011)
